Test results published in patent publication US20060189546A1, “Compounds for treating autoimmune and demyelinating diseases” (priority 2005, published 2006).

Legend:
[1] = tested on: B-lymphocyte cells; assay: Cell Proliferation, B-Cell + LPS ([3H]thymidine incorporation); format: cell-based, balb/c mice; settings: Mus musculus
Procedure: B-lymphocyte cells isolated from the spleen of balb/c mice weighing 17±1 g were used. Test compound and/or vehicle were incubated with the cells (1.5×10^6/ml) in the presence of 10 μg/ml lipopolysaccharide (LPS) in AIM-V medium pH 7.4 at 37° C. for 24 hours. [^3H]Thymidine (120 nM) was then added for an additional overnight incubation period. Thymidine incorporation was assessed by liquid scintillation counting.
(§1) Test compound-induced suppression of cell proliferation by 50 percent or more (≧50%) relative to vehicle control response indicates significant inhibitory activity.

[2] = tested on: T-lymphocyte cells; assay: Cell Proliferation, T-Cell + Con A ([3H]thymidine incorporation); format: cell-based, balb/c mice; settings: Mus musculus
Procedure: T-lymphocyte cells isolated from thymus of balb/c mice weighing 17±1 g were used. Test compound and/or vehicle is incubated with the cells (4×10^6/ml) in the presence of 3 μg/mL Concanavalin A (Con A) in AIM-V medium pH 7.4 at 37° C. for 24 hours. [^3H]Thymidine (120 nM) was then added for an additional overnight incubation period. Thymidine incorporation was assessed by liquid scintillation counting.
as §1

[3] = tested on: Experimental Autoimmune Encephalomyelitis (EAE); assay: Chronic EAE, two doses 72 hours apart (Example 4); format: in vivo, guinea pig; settings: 20 mg/kg i.p., 2 doses 72 hours apart
Procedure: In order to test the possibility that a more frequent dosing schedule would offer a more rapid resolution of disease symptoms, an experiment was performed to match the dosing cycle to the observed periodicity of response. Accordingly, the method of Experiment 2 was applied to a cohort of animals and controls, which were allowed to reach the chronic phase of disease at 30 days post immunization. Six animals with a disease score of 1 were selected and half were treated with 20 mg/kg Symadex™ administered intraperitoneally. Two dose were given 72 hours apart to 3 animals. Three animals served as vehicle controls.

[4] = B-cell, read-out: % Growth Inhibition

CCN(CC)CCNc1ccc2ncn3c4ccc(O)cc4c(=O)c1c23 [Symadex™, 5-[[(diethylamino)ethyl]amino]-8-hydroxyimidazo[4,5,1-de]-acridine-6-one]
inhibition at 1 µM [1, 4]: 101%
inhibition at 10 µM [1, 4]: 103%
IC50 ([1]; B-Cell + LPS): 38 nM
inhibition at 0.001 µM ([1]; B-Cell + LPS, 1 nM, read-out: % Growth Inhibition): 0%
inhibition at 0.01 µM ([1]; B-Cell + LPS, 10 nM, read-out: % Growth Inhibition): 38%
inhibition at 0.1 µM ([1]; B-Cell + LPS, 0.1 μM, read-out: % Growth Inhibition): 80%
IC50 ([2]; T-Cell + Con A): 14 nM
inhibition at 0.001 µM ([2]; T-Cell + Con A, 1 nM, read-out: % Growth Inhibition): 10%
inhibition at 0.01 µM ([2]; T-Cell + Con A, 10 nM, read-out: % Growth Inhibition): 44%
inhibition at 0.1 µM ([2]; T-Cell + Con A, 0.1 μM, read-out: % Growth Inhibition): 82%
inhibition at 1 µM ([2]; read-out: % Growth Inhibition): 103%
inhibition at 10 µM ([2]; read-out: % Growth Inhibition): 104%
clinical scores [3]: reversed the progression of disease and restored baseline clinical scores with just 2 doses
